Data taken from US20250268903A1, “RXFP1 AGONISTS” (BRISTOL-MYERS SQUIBB COMPANY, priority 2021, published 2025).

These molecules were tested against T1, human RXFP1 (Homo sapiens, UniProt Q9HBX9) (assay: hRXFP1 HEK293 cAMP assay (HTRF)). Details: HEK293 cells stably expressing human RXFP1, 30 min at room temperature.
T1 construct: expressed in transfected cells
T1 sequence (Q9HBX9 1-757): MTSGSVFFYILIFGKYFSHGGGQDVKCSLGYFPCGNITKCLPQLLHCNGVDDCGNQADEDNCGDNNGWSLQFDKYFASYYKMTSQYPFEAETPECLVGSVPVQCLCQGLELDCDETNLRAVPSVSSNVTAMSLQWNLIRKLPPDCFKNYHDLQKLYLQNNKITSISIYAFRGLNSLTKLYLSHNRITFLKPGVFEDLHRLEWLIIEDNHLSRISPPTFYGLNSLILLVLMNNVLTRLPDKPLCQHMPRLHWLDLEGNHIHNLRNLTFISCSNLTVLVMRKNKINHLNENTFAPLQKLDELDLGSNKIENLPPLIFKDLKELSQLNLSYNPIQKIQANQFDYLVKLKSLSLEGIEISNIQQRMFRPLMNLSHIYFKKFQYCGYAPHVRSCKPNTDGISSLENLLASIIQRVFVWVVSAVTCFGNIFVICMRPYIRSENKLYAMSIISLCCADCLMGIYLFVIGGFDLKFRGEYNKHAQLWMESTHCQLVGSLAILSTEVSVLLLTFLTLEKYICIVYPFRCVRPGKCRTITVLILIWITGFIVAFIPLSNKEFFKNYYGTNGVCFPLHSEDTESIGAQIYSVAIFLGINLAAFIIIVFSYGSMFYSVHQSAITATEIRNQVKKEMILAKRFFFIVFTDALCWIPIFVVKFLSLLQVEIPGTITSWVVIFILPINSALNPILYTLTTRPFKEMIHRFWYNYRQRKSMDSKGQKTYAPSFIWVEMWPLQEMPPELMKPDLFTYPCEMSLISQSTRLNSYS
Format: cell-based
Outline: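 HEK293 cells stably expressing human RXFP1 were suspended in HBSS (Ca/Mg) with 20 mM HEPES, 0.05% BSA and 0.5 mM IBMX, then treated with compounds (0.010 nM–50 μM, 2% DMSO final) for 30 min at room temperature. Intracellular cAMP was measured by HTRF, and potency was derived from 4-parameter logistic fits.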

Row | SMILES | EC50 [nM]
1 | COCc1ncn(Cc2ccc(OC)c(C(=O)N[C@H]3[C@@H](C(=O)Nc4ccc(F)c(C(F)(F)F)c4)[C@H]4CC[C@@H]3/C4=C\C3CC3)c2)n1 [Example 296, (1R,2S,3R,4R,7Z)-7-(cyclopropyl-methylidene)-N-[4-fluoro-3-(trifluoromethyl)phenyl]-3-(2-methoxy-5-{[3-(methoxymethyl)-1H-1,2,4-triazol-1-yl]methyl}benzamido) bicyclo[2.2.1] heptane-2-carboxamide] | 107
2 | COc1ccc(COC2C[C@@H](O)[C@@H](O)C2)cc1C(=O)N[C@H]1[C@@H](C(=O)Nc2ccc(F)c(C(F)(F)F)c2)[C@H]2CC[C@@H]1/C2=C\C1CC1 (stereo partly drawn) [Example 297, (1R,2S,3R,4R,7Z)-7-(cyclopropylmethylidene)-3-[5-({[(3R,4S)-3,4-dihydroxycyclopentyl]oxy}methyl)-2-methoxybenzamido]-N-[4-fluoro-3-(trifluoromethyl)phenyl]bicyclo[2.2.1]heptane-2-carboxamide] | 8.3
3 | COc1ccc(CN2O[C@H]3COC[C@H]3C2=O)cc1C(=O)N[C@H]1[C@@H](C(=O)Nc2ccc(F)c(C(F)(F)F)c2)[C@H]2CC[C@@H]1/C2=C\C1CC1 [Example 299, (1R,2S,3R,4R,7Z)-3-(5-{[(3aR,6aR)-3-oxo-hexahydrofuro[3,4-d][1,2]oxazol-2-yl]methyl}-2-methoxybenzamido)-7-(cyclopropylmethylidene)-N-[4-fluoro-3-(trifluoromethyl)phenyl]bicyclo[2.2.1]heptane-2-carboxamide] | 116
4 | COc1ccc(COC2=NOC3COCC23)cc1C(=O)N[C@H]1[C@@H](C(=O)Nc2ccc(F)c(C(F)(F)F)c2)[C@H]2CC[C@@H]1/C2=C\C1CC1 (stereo partly drawn) [Example 300, (1R,2S,3R,4R,7Z)-3-[5-({3aH,4H,6H,6aH-furo[3,4-d][1,2]oxazol-3-yloxy}methyl)-2-methoxybenzamido]-7-(cyclopropylmethylidene)-N-[4-fluoro-3-(trifluoromethyl)phenyl]bicyclo[2.2.1] heptane-2-carboxamide] | 206
5 | COc1ccc(COC2=NOC3CC(O)CC23)cc1C(=O)N[C@H]1[C@@H](C(=O)Nc2ccc(F)c(C(F)(F)F)c2)[C@H]2CC[C@@H]1/C2=C\C1CC1 (stereo partly drawn) [Example 301, (1R,2S,3R,4R,7Z)-7-(cyclopropylmethylidene)-N-[4-fluoro-3-(trifluoromethyl)phenyl]-3-{5-[({5-hydroxy-3aH,4H,5H,6H,6aH cyclopenta[d][1,2]oxazol-3-yl}oxy)methyl]-2-methoxybenzamido} bicyclo[2.2.1] heptane-2-carboxamide] | 21.6
6 | COc1ccc(/C=C/C(=O)N(C)CCO)cc1C(=O)N[C@H]1[C@@H](C(=O)Nc2ccc(F)c(C(F)(F)F)c2)[C@H]2CC[C@@H]1/C2=C\C1CC1 [Example 302, (1R,2S,3R,4R,7Z)-7-(cyclopropyl-methylidene)-N-[4-fluoro-3-(trifluoromethyl)phenyl]-3-{5-[(1E)-2-[(2-hydroxyethyl) (methyl)carbamoyl]eth-1-en-1-yl]-2-methoxybenzamido} bicyclo[2.2.1]heptane-2-carboxamide] | 16.3
7 | COc1ccc(/C=C/C(=O)N2CCCC2)cc1C(=O)N[C@H]1[C@@H](C(=O)Nc2ccc(F)c(C(F)(F)F)c2)[C@H]2CC[C@@H]1/C2=C\C(F)(F)F [Example 303, (1R,2S,3R,4R,7Z)-N-[4-fluoro-3-(trifluoromethyl)phenyl]-3-{2-methoxy-5-[(1E)-3-oxo-3-(pyrrolidin-1-yl)prop-1-en-1-yl]benzamido}-7-(2,2,2-trifluoroethylidene) bicyclo[2.2.1] heptane-2-carboxamide] | 77.9
8 | COC(=O)/C=C\c1ccc(OC)c(C(=O)N[C@H]2[C@@H](C(=O)Nc3ccc(F)c(C(F)(F)F)c3)[C@H]3CC[C@@H]2/C3=C\C(F)(F)F)c1 [Example 304, methyl (2Z)-3-(3-{[(1R,2R,3S,4R,7Z)-3-{[4-fluoro-3-(trifluoromethyl)phenyl]carbamoyl}-7-(2,2,2-trifluoroethylidene)bicyclo[2.2.1]heptan-2-yl]carbamoyl}-4-methoxyphenyl) prop-2-enoate] | 597
9 | CCOC(=O)/C(C)=C/c1ccc(OC)c(C(=O)N[C@H]2[C@@H](C(=O)Nc3ccc(F)c(C(F)(F)F)c3)[C@H]3CC[C@@H]2/C3=C\C(F)(F)F)c1 [Example 305, ethyl (2E)-3-(3-{[(1R,2R,3S,4R,7Z)-3-{[4-fluoro-3-(trifluoromethyl)phenyl]carbamoyl}-7-(2,2,2-trifluoroethylidene)bicyclo[2.2.1]heptan-2-yl]carbamoyl}-4-methoxyphenyl)-2-methylprop-2-enoate] | 744
10 | COc1ccc(/C=C/C(=O)N2CCOCC2)cc1C(=O)N[C@H]1[C@@H](C(=O)Nc2ccc(F)c(C(F)(F)F)c2)[C@H]2CC[C@@H]1/C2=C\C1CC1 [Example 306, (1R,2S,3R,4R,7Z)-7-(cyclopropyl-methylidene)-N-[4-fluoro-3-(trifluoromethyl)phenyl]-3-{2-methoxy-5-[(1E)-3-(morpholin-4-yl)-3-oxoprop-1-en-1-yl]benzamido} bicyclo[2.2.1] heptane-2-carboxamide] | 5.26
11 | COc1ccc(/C=C/C(=O)N2CCO[C@@H](CO)C2)cc1C(=O)N[C@H]1[C@@H](C(=O)Nc2ccc(F)c(C(F)(F)F)c2)[C@H]2CC[C@@H]1/C2=C\C1CC1 [Example 307, (1R,2S,3R,4R,7Z)-7-(cyclopropyl-methylidene)-N-[4-fluoro-3-(trifluoromethyl)phenyl]-3-{5-[(1E)-3-[(2R)-2-(hydroxymethyl)morpholin-4-yl]-3-oxoprop-1-en-1-yl]-2-methoxybenzamido} bicyclo[2.2.1]heptane-2-carboxamide] | 18.5
12 | COc1ccc(/C=C/C(=O)N2CC3CCC(C2)O3)cc1C(=O)N[C@H]1[C@@H](C(=O)Nc2ccc(F)c(C(F)(F)F)c2)[C@H]2CC[C@@H]1/C2=C\C1CC1 [Example 308, (1R,2S,3R,4R,7Z)-7-(cyclopropylmethylidene)-N-[4-fluoro-3-(trifluoromethyl)phenyl]-3-{2-methoxy-5-[(1E)-3-{8-oxa-3-azabicyclo[3.2.1]octan-3-yl}-3-oxoprop-1-en-1-yl]benzamido} bicyclo[2.2.1] heptane-2-carboxamide] | 13.7
13 | COc1ccc(/C=C/C(=O)N2CC3(CC(O)C3)C2)cc1C(=O)N[C@H]1[C@@H](C(=O)Nc2ccc(F)c(C(F)(F)F)c2)[C@H]2CC[C@@H]1/C2=C\C1CC1 [Example 309, (1R,2S,3R,4R,7Z)-7-(cyclopropylmethylidene)-N-[4-fluoro-3-(trifluoromethyl)phenyl]-3-{5-[(1E)-3-{6-hydroxy-2-azaspiro[3.3]heptan-2-yl}-3-oxoprop-1-en-1-yl]-2-methoxybenzamido} bicyclo[2.2.1]heptane-2-carboxamide] | 17.1
14 | COc1ccc(/C=C/C(=O)N2CCO[C@@H](CO)C2)cc1C(=O)N[C@H]1[C@@H](C(=O)Nc2ccc(F)c(C(F)(F)F)c2)[C@H]2CC[C@@H]1/C2=C\C(F)(F)F [Example 310] | 87
15 | COc1ccc(/C=C/C(=O)N2CC3CCC(C2)O3)cc1C(=O)N[C@H]1[C@@H](C(=O)Nc2ccc(F)c(C(F)(F)F)c2)[C@H]2CC[C@@H]1/C2=C\C(F)(F)F [Example 311, (1R,2S,3R,4R,7Z)-N-[4-fluoro-3-(trifluoromethyl)phenyl]-3-{2-methoxy-5-[(1E)-3-{8-oxa-3-azabicyclo[3.2.1]octan-3-yl}-3-oxoprop-1-en-1-yl]benzamido}-7-(2,2,2-trifluoroethylidene) bicyclo[2.2.1]heptane-2-carboxamide] | 90.9
16 | COc1ccc(/C=C(\C)C(=O)N2CCC(O)CC2)cc1C(=O)N[C@H]1[C@@H](C(=O)Nc2ccc(F)c(C(F)(F)F)c2)[C@H]2CC[C@@H]1/C2=C\C(F)(F)F [Example 312, (1R,2S,3R,4R,7Z)-N-[4-fluoro-3-(trifluoromethyl)phenyl]-3-{5-[(1E)-3-(4-hydroxypiperidin-1-yl)-2-methyl-3-oxoprop-1-en-1-yl]-2-methoxybenzamido}-7-(2,2,2-trifluoroethylidene) bicyclo[2.2.1]heptane-2-carboxamide] | 31.4
17 | COc1ccc(/C=C/C(=O)N2CC(O)C2)cc1C(=O)N[C@H]1[C@@H](C(=O)Nc2ccc(F)c(C(F)(F)F)c2)[C@H]2CC[C@@H]1/C2=C\C1CC1 [Example 313, (1R,2S,3R,4R,7Z)-7-(cyclopropyl-methylidene)-N-[4-fluoro-3-(trifluoromethyl)phenyl]-3-{5-[(1E)-3-(3-hydroxyazetidin-1-yl)-3-oxoprop-1-en-1-yl]-2-methoxybenzamido} bicyclo[2.2.1]heptane-2-carboxamide] | 32.9
18 | COc1ccc(/C=C/C(=O)N2CC(O)C2)cc1C(=O)N[C@H]1[C@@H](C(=O)Nc2ccc(F)c(C(F)(F)F)c2)[C@H]2CC[C@@H]1/C2=C\C(F)(F)F [Example 314] | 66.2
